Laboratory results as given in US7605149B1, “Modulation of the phospholipase A2 pathway as a therapeutic” (University of South Florida, priority 1998, dated 2009).

Key:
[1] = tested on: p38 MAPK in differentiated PC12 cells; assay: Immunolocalization of activated p38 MAPK in neuronal cells; format: cell-based, rat; settings: 10 and 20 min, FIG. 26
Protocol: Immunolocalization of activated p38 MAPK in neuronal cells. Cells were treated as described above, and were plated on glass cover-slips which had been soaked in 10 μg/mL of mouse laminin. Following differentiation, neuronal cells were treated with soluble Aβ1-40 (5 μM) or anasomycin (20 μM, a known stimulator of p38 MAPK) for 10 and 20 min, and immediately fixed in 4% paraformaldehyde in 0.1 M PBS, pH 7.4 for 30 min at 4° C. Cells were washed multiple times in PBS, and incubated for 3 h with a phospho-specific antibody recognizing active active p38 MAPK. Cells were then washed multiple times in PBS and incubated with a secondary HRP-conjugated antibody. Immunostaining was performed using the DAKO ABC kit, cells were counterstained with hematoxylin-eosin, and cells were then observed under a microscope.

N9 microglia = assay: [3H]AA release in cultured microglial cells; format: cell-based, murine; settings: FIG. 24
Protocol: Measurement of [^3H]AA release in cultured cells. Microglial cells were cultured as described above, seeded at 50,000 cells/well in 6-well plates (Falcon, France), and incubated with 0.4 μCi/mL [^3H]AA for 18 h. Cells were washed multiple times with 1 mL of complete medium and were then treated with 1 μM of Aβ1-40 or 10 U/mL of sPLA2 for 5 h. Cell culture supernatants were collected each hour following treatment and radioactivity was quantified as described above.
(§1) Statistical analysis. Analysis of variance (ANOVA) was used to analyze the data, with post-hoc comparisons of means carried out where appropriate by Sheffe's or Bonferonni's methods. As previously described (Paris et al., Neurosci Lett, 1998), a significant interactive term by ANOVA was taken as evidence that both drug x and Aβ are modulating a common signal transduction pathway. […] Levene's test for equality of variance followed by t-test for independent samples was used for single mean comparisons. Alpha levels were set at 0.05 for all analyses. Analyses were performed using SPSS for Windows release 9.5.

[2] = tested on: intact rat aortae (aortic rings); assay: [3H]AA release in intact rat aortae; format: cell-based; settings: 5 minutes, then ET-1 dose range
Protocol: Measurement of [^3H]AA release in intact rat aortae. Aortic rings (1.5 mm long) were placed in 1 mL of physiological saline solution (PSS, containing 130 mM NaCl, 5 mM KCl, 1.5 mM CaCl2, 1.2 mM MgCl2, 10 mM HEPES, and 10 mM glucose adjusted to pH 7.2 with NaOH) and incubated with 2.5 μCi of [^3H]AA (specific activity of 91.8 Ci/mmol) for 24 h at 4° C. Rat aortae were subsequently washed in 50 mL of Kreb's buffer and then subjected to the vasoactivity assay. Initial background [^3H]AA release was determined following 30 min of equillibration for each aortic ring prior to treatment by removing 200 μL of Kreb's buffer (total volume of 7 mL each) from each bath, and measuring radioactivity (in cpm) after the addition of 1 mL of scintillant (EcoLume, ICN Inc., Calif.) using a liquid scintillation counter (1209 Rackbeta, WALLAC Inc., Md.). Subsequently, aortic rings were treated with sPLA2 alone or Aβ1-40 (1 μM) in the presence or absence of a MEK1/2 inhibitor (PD 98059) or a cPLA2 inhibitor (AACOCF3) for 5 min, or went untreated for the same length of time (control). Quantification of [^3H]AA release was then preformed as described above. All aortic rings were then subjected to a dose range of ET-1 (1, 2.5, and 5 nM), and radioactivity was measured 5 min after the first dose of ET-1 (1 nM), and 20 min after the second (2.5 nM) and third (5 nM) doses of ET-1. Radioactivity incorporated into each ring was determined by placing the aortic ring in 1 mL of scintillant and assaying as described above. Results are expressed as the means ±1 SE of the percentage of [^3H]AA incorporated for each aortic ring [([^3H]AA released—[^3H]AA initial background)/incorporated [^3H]AA].
as §1

[3] = tested on: rat aortae (aortic rings); assay: Vessel bath vasoactivity assay: ET-1-induced vasoconstriction of rat aortic rings and its enhancement by Aβ or sPLA2; format: cell-based
Protocol: Vessel experiments. Freshly dissected aortae were prepared from normal male Sprague-Dawley rats (7-8 months old, purchased from Zivic Miller, Zelienople, Pa.) as previously described by Paris et al, Exp Neurol 1998 and Exp Neurol 1999. Rat aortae were segmented into rings and suspended in Kreb's buffer on hooks connected to a tensiometer linked to a MacLab system. Aortic rings were equilibrated for 2 hours, in 7 mL tissue baths containing Kreb's buffer oxygenated with 95% O2: 5% CO2, and thermoregulated to 37° C. A baseline tension of 2 g was applied to each ring, and the first set of aortic rings was pretreated with the various compounds named above either alone or in combination with Aβ peptides. After 5 minutes of incubation in the presence or absence of Aβ, this first set of vessels was subjected to a dose range of ET-1 (from 1 nM to 5 nM). A second set of vessels was treated with 1 μM of Aβ peptides prior to the addition of ET-1. A third set (control) received only ET-1 treatment. Each ET-1 dose was added only after the constriction response to the previous dose had reached a plateau. In all cases the means ±1 standard error (SE) of the percentage vasoconstriction increase over baseline were determined for each dose of ET-1 used.
as §1

N9 microglial cells = assay: Leukotriene B4 (LTB4) ELISA on microglial cell supernatants; format: cell-based, murine; settings: 500 nM, 18 hours; FIG. 23
Protocol: Leukotriene -B4 (LTB4) enzyme-linked immunoabsorbant assay (ELISA). Quantitative determination of LTB4 levels was made using a competitive binding ELISA (R&D Systems, Minneapolis, Minn.) designed to measure LTB4 in cell culture supernatants (as described in Paris et al., Exp Neurol 1999). A murine microglial cell line (N9) was provided by Dr. Paola Ricciardi-Castagnoli (Cellular Pharmacology Center, Milan, Italy) and were grown in RPMI medium supplemented with five percent fetal calf serum, 2 mM glutamine, 100 U/mL penicillin, […] streptomycin and 0.05 mM 2-mercaptoethanol. Microglial cells were seeded at 50,000 cells/well in 6-well plates (Falcon, France) and treated with Aβ1-40 (500 nM), drugs which oppose the PLA2/AA/5-LOX/COX-2 pathway, or untreated (control) and incubated for 18 hours. Cell supernatants were then collected and diluted 10-fold in assay buffer. 50 μL of diluted samples were then used in the assay, and each sample was assayed in duplicate. Manipulations were performed in accordance with the manufacturer's instruction. A spectramax 250 spectrophotometer (Molecular Devices, San Diego, USA) was used to measure absorbance at 405 nm and a standard curve was plotted using a 4-parameter model.
as §1

[4] = tested on: rat aortae (aortic rings); settings: freshly solubilized; previously shown (Crawford et al., 1998); cited from earlier work
[5] = tested on: NGF-β differentiated PC12 cells; assay: [3H]AA release in neuronal cells; format: cell-based, rat; settings: FIG. 25
Protocol: Measurement of [^3H]AA release in neuronal cells (cultured differentiated PC12 cells). A rat pheochromocytoma cell line (PC12) was grown in Kahn's modification of F12 medium supplemented with 10% fetal calf serum, 100 U/mL penicillin and […] streptomycin. PC12 cells were seeded at 35,000 cells/well and differentiated with 60 ng/mL NGF-β for 5-6 days and then maintained with 5 ng/mL NGF-β thereafter. PC12 cells were treated with 0.4 μCi/mL of [^3H]AA for 18 h and were washed multiple times with 1 mL of complete medium to remove unincorporated [^3H]AA. Cells were then treated with 1 μM of Aβ1-40 or 40 U/mL of sPLA2 for 5 h. Cell culture supernatants were collected each hour following treatment and radioactivity was quantified as described above.
Statistical analysis. Analysis of variance (ANOVA) was used to analyze the data, with post-hoc comparisons of means carried out where appropriate by Sheffe's or Bonferonni's methods. Levene's test for equality of variance followed by t-test for independent samples was used for single mean comparisons. Alpha levels were set at 0.05 for all analyses. Analyses were performed using SPSS for Windows release 9.5.

**Q.** Which “activation of p38 MAPK (phospho-specific immunostaining)” value ([1]; 20 μM) does the source give for COc1ccc(C[C@H]2NC[C@H](O)[C@H]2OC(C)=O)cc1 [anisomycin] here?
**A.** Its value is “brown immunostaining is intensified, and a strong nuclear staining is evident”.

**Q.** With “Aβ1-40: soluble β-amyloid peptide containing forty amino acids, obtained from QCB” as the molecule, how does the “[3H]AA release in N9 microglia” value (N9 microglia; 1 μM for 5 h) read?
**A.** Its value is “stimulates AA release from N9 microglia”.

**Q.** What about the “[3H]AA release from aortic rings” value ([2]; Aβ1-40 1 μM, FIG. 21) of the same molecule?
**A.** The value was “enhances the release of [^3H]AA from aortic rings”.

**Q.** And the “enhancement of ET-1-induced vasoconstriction versus Aβ-free condition” value ([3]; 50 nM dose, across 2.5 nM and 5 nM ET-1, FIG. 1)?
**A.** The value was “significant difference”.

**Q.** And the “duration of ET-1-induced vasoconstriction (vasotension t=0 to 10 minutes after 5 nM ET-1)” value ([3]; 1 μM, 5 minutes prior to ET-1 (1, 2.5, 5 nM), FIG. 2)?
**A.** The value was “induces a long-lasting vasoconstriction”.

**Q.** What about the “lowest dose giving sustained constriction / enhancement of ET-1-induced vasoconstriction” value ([3]; freshly solubilized peptide) of the same molecule?
**A.** The value was ≤ 50 nM.

**Q.** And the “microglial LTB4 release” value (N9 microglial cells)?
**A.** Its value is “increased release of LTB4”.

**Q.** And the “magnitude of constriction induced by ET-1 in isolated mammalian vessels” value [4]?
**A.** The value was “increase the magnitude of constriction induced by ET-1”.

**Q.** And the “[3H]AA release in neuronal cells” value ([5]; 1 μM for 5 h)?
**A.** The value was “stimulates AA release from neuronal cells”.

**Q.** What about the “activation of p38 MAPK (phospho-specific immunostaining)” value ([1]; Aβ1-40 5 μM) of the same molecule?
**A.** The value was “increases the phosphorylation of p38 MAPK”.

**Q.** For “type I sPLA2: secretory porcine pancreatic PLA2 (type I sPLA2), purchased from Sigma”, which “[3H]AA release in N9 microglia” value (N9 microglia; 10 U/mL for 5 h) is on record?
**A.** The value was “induces the release of [^3H]AA”.

**Q.** And the “[3H]AA release from aortic rings” value ([2]; 10 U/mL, FIG. 20)?
**A.** The value was “increased release of [^3H]AA”.

**Q.** And the “effect on ET-1-induced vasoconstriction” value ([3]; 1 U/mL, 5 minutes prior to ET-1 dose range, FIG. 6)?
**A.** Its value is “able to enhance the vasoconstriction induced by ET-1”.

**Q.** And the intrinsic vasoactive properties ([3]; added directly into the vessel bath, without ET-1)?
**A.** The intrinsic vasoactive properties was “does not display intrinsic vasoactive properties”.

**Q.** What about the “[3H]AA release in neuronal cells” value ([5]; 40 U/mL for 5 h) of the same molecule?
**A.** The value was “induces the release of [^3H]AA”.
